We go through seven molecules from US4960755A, “BU-3608 derivatives” (Bristol-Myers Company, priority 1988, dated 1990).

Broadly, the solubility is the dissolved amount per volume that the medium holds.

Data set [1] in a line: Solubility in phosphate-buffered saline solutions, PBS(-) and PBS(+). In kind it is physicochemical. As for the experimental part:
The solubility of the various antibiotics was determined in phosphate-buffered saline (PBS) solutions and the data obtained are shown below. PBS(-) refers to a solution containing for each liter 0.2 g KCl, 0.2 g KH2 PO4, 8 g NaCl, and 1.15 g Na2 HPO4; PBS(+) contains additionally 100 mg MgCl2.6H2 O and 100 mg CaCl2.

A further data set has as its system Candida albicans A9540. The data set can be described thus: In vivo activity against Candida albicans A9540 infection in mice. Set-up: species or system male ICR mice. As to conditions: for ED50: Candida albicans, read-out: PD50 (dose that protects 50% of the animals from infection). On the procedure: In vivo activity of compounds of the present invention was tested against Candida albicans A9540 infection in mice. Test organisms were cultured for 18 hours at 28° C. in YGP medium (yeast extract, glucose, peptone, K2 HPO4, MgSO4) and then suspended in saline. Male ICR mice weighing 20 to 24 g were infected intravenously with about 10 times the median lethal dose of the test fungus. The antibiotic at various dose levels was administered to groups of 5 mice each intravenously just after the fungal infection. The dose that protects 50% of the animals from infection (PD50, mg/kg) was calculated from survival rates recorded on the 20th day after the fungal challenge. All control animals died within 7 to 15 days after infection. The PD50 for compounds of Examples 5, 7, and 8 are 14 mg/kg (toxic), 11 mg/kg, and 3.5 mg/kg, respectively.

The next data set is described as follows: Solubility in water. The format is physicochemical. As to conditions: in words.
The mark [2] stands for this setting: pbs(+) with mgcl2, PBS(+), containing additionally MgCl2 and CaCl2, read-out: Solubility.
The mark [3] stands for this setting: A9540, 480 h, intravenous just after infection, survival on 20th day.

In brackets after ≈: the same amount, converted by molar mass. Where two headings read alike, the source gives them in different places.

Take `CCCN(C)[C@@H]1[C@H](O[C@@H]2OC[C@@H](O)[C@H](O)[C@H]2O)[C@@H](O)[C@H](O[C@H]2c3cc(C)c(C(=O)N[C@H](C)C(=O)O)c(O)c3-c3c(cc4c(c3O)C(=O)c3cc(OC)cc(O)c3C4=O)[C@@H]2O)O[C@@H]1C` [Example 9, N-propyl BU-3608]: the solubility in data set [1] (setting [2]) came to 32 µg/mL (≈ 36.2 µM); in data set [1] (pbs(-), read-out: Solubility), 73 µg/mL (≈ 82.7 µM).

Consider `COc1cc(O)c2c(c1)C(=O)c1c(cc3c(c1O)-c1c(cc(C)c(C(=O)N[C@H](C)C(=O)O)c1O)[C@H](O[C@@H]1O[C@H](C)[C@H]([N+](C)(C)C)[C@H](O[C@@H]4OC[C@@H](O)[C@H](O)[C@H]4O)[C@H]1O)[C@H]3O)C2=O` [Example 10, quaternary ammonium derivative of BU-3608], for which the solubility in data set [1] (pbs(-), read-out: Solubility) was greater than 2700 µg/mL.

For the molecule `COc1cc(O)c2c(c1)C(=O)c1c(cc3c(c1O)-c1c(cc(C)c(C(=O)NCC(=O)O)c1O)[C@H](O[C@@H]1O[C@H](C)[C@H](N(C)C)[C@H](O)[C@H]1O)[C@H]3O)C2=O` [Example 6, N,N-dimethyl desxylosyl BU-3608 E], the solubility was 122 µg/mL (≈ 172 µM) in data set [1] (pbs(+) with mgcl2, cacl2) and greater than 2100 µg/mL in data set [1] (pbs(-)).

On to `COc1cc(O)c2c(c1)C(=O)c1c(cc3c(c1O)-c1c(cc(C)c(C(=O)NCC(=O)O)c1O)[C@H](O[C@@H]1O[C@H](C)[C@H](N(C)C)[C@H](O[C@@H]4OC[C@@H](O)[C@H](O)[C@H]4O)[C@H]1O)[C@H]3O)C2=O` [Example 7, N,N-dimethyl BU-3608 E], for which the solubility in data set [1] (setting [2]) is greater than 2000 µg/mL; in data set [1] (pbs(-), read-out: Solubility) it was 1800 µg/mL (≈ 2140 µM). Further, the ED50 with Candida albicans A9540 (setting [3]) stood at 11 mg/kg.

For the molecule `COc1cc(O)c2c(c1)C(=O)c1c(cc3c(c1O)-c1c(cc(C)c(C(=O)N[C@H](C)C(=O)O)c1O)[C@H](O[C@@H]1O[C@H](C)[C@H](N(C)C)[C@H](O)[C@H]1O)[C@H]3O)C2=O` [Example 5, N-methyl BU-3608 B], the solubility in data set [1] (pbs(+) with mgcl2, cacl2) was found to be 42 µg/mL (≈ 58.1 µM); in data set [1] (pbs(-)), 330 µg/mL (≈ 457 µM). Moreover, the ED50 in the data set on Candida albicans A9540 (A9540, iv, 480 h) came to 14 mg/kg. Besides, the “toxicity remark at PD50” value in the data set with Candida albicans A9540 (intravenous, at 14 mg/kg, mice) was “toxic”.

Regarding `COc1cc(O)c2c(c1)C(=O)c1c(cc3c(c1O)-c1c(cc(C)c(C(=O)N[C@H](C)C(=O)O)c1O)[C@H](O[C@@H]1O[C@H](C)[C@H](N(C)C)[C@H](O[C@@H]4OC[C@@H](O)[C@H](O)[C@H]4O)[C@H]1O)[C@H]3O)C2=O` [Example 8, N-methyl BU-3608], the solubility was 3 µg/mL (≈ 3.51 µM) in data set [1] (setting [2]) and 3100 µg/mL (≈ 3630 µM) in data set [1] (pbs(-), read-out: Solubility). The ED50 in the data set with Candida albicans A9540 (setting [3]) amounted to 3.5 mg/kg.

For the molecule `CN[C@@H]1[C@H](O[C@@H]2OC[C@@H](O)[C@H](O)[C@H]2O)[C@@H](O)[C@H](O[C@H]2c3cc(C)c(C(=O)N[C@H](C)C(=O)O)c(O)c3-c3c(cc4c(c3O)C(=O)c3cc(OC)cc(O)c3C4=O)[C@@H]2O)O[C@@H]1C` [BU-3608], the solubility in data set [1] (setting [2]) is 9 to 23 µg/mL (≈ 10.7 to 27.4 µM); in data set [1] (pbs(-), read-out: Solubility), 16 to 18 µg/mL (≈ 19 to 21.4 µM). Moreover, the solubility in water result in “Solubility in water” was “very limited”.
